Laboratory results reported in US20250000872A1, “FORMULATIONS AND DOSING REGIMENS FOR RIP1 KINASE INHIBITORS FOR TREATING AUTOIMMUNE AND INFLAMMATORY DISEASES” (Eli Lilly and Company, priority 2023, published 2025).

Key:
[1] = target: T1, OATP2B1 (Homo sapiens, UniProt O94956); test: In vitro drug-drug interaction studies: OATP2B1 transporter inhibition; type: in vitro ADME; details: based upon in vitro studies
T1 sequence (O94956 1-709): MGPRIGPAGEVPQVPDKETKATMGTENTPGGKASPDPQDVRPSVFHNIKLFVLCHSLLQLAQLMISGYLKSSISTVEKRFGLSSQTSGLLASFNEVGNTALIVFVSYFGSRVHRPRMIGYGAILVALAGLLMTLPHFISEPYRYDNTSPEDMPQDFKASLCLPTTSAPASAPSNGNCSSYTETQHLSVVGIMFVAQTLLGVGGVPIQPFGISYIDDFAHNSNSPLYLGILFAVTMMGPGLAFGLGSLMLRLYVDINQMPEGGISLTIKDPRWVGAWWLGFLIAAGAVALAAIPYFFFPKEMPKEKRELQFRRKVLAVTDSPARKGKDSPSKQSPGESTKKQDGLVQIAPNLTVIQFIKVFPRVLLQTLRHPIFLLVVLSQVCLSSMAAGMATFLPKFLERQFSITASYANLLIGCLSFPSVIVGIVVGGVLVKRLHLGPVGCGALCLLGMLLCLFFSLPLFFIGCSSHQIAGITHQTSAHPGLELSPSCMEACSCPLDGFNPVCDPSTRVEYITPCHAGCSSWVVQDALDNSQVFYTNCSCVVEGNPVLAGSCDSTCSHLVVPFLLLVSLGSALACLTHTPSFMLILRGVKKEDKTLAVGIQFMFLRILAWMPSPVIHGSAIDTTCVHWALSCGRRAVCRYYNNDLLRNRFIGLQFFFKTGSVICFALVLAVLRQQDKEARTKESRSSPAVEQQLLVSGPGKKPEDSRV

[2] = tested on: CYP3A5; test: In vitro drug-drug interaction studies: CYP3A5 induction; type: in vitro ADME; details: based upon in vitro studies
[3] = tested on: CYP3A; test: In vitro drug-drug interaction studies: CYP3A inhibition; type: in vitro ADME; details: based upon in vitro studies
[4] = target: T2, CYP2C8 (Homo sapiens, UniProt P10632); test: In vitro drug-drug interaction studies: CYP2C8 inhibition; type: in vitro ADME; details: based upon in vitro studies
T2 sequence (P10632 1-490): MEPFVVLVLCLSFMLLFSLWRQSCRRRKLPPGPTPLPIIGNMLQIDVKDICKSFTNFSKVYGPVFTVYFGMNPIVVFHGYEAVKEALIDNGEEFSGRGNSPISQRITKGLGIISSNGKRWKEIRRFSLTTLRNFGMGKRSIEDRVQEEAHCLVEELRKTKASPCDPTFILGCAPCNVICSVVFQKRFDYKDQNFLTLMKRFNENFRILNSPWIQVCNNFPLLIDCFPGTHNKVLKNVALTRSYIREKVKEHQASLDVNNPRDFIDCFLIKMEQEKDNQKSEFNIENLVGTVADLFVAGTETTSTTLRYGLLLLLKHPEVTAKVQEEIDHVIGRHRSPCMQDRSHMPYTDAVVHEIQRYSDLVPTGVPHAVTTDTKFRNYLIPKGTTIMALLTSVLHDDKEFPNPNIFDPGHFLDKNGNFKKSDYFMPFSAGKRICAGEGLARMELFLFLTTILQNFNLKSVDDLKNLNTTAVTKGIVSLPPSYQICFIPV

[5] = tested on: rats; test: 6-month repeat-dose toxicity study in rats; type: in vivo
[6] = tested on: CYP3A; test: Preliminary in vitro CYP3A induction data; type: in vitro ADME
Excerpt: Investigators should be aware of participants' concomitant use of CYP3A substrates.

[7] = target: T3, BCRP (Homo sapiens, UniProt Q9UNQ0); test: In vitro drug-drug interaction studies: BCRP transporter inhibition; type: in vitro ADME; details: based upon in vitro studies
T3 sequence (Q9UNQ0 1-655): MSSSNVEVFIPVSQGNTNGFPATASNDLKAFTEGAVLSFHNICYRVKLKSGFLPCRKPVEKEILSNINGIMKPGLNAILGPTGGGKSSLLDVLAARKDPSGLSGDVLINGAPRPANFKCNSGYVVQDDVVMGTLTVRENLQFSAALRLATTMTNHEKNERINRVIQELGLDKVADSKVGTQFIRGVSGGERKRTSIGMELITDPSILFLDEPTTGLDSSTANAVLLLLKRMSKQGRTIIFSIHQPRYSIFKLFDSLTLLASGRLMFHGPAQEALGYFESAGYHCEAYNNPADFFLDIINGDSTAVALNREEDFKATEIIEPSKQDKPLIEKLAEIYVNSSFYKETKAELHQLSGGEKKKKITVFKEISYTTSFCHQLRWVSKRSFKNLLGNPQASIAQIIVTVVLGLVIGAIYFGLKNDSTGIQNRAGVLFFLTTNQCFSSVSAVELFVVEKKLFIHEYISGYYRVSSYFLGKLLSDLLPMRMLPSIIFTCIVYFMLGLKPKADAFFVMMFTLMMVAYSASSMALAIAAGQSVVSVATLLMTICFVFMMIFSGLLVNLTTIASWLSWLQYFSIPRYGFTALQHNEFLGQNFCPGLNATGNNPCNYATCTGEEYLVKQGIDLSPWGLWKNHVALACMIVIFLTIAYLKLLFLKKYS

[8] = target: T4, OCT1 (Homo sapiens, UniProt O15245); test: In vitro drug-drug interaction studies: OCT1 transporter inhibition; type: in vitro ADME; details: based upon in vitro studies
T4 sequence (O15245 1-554): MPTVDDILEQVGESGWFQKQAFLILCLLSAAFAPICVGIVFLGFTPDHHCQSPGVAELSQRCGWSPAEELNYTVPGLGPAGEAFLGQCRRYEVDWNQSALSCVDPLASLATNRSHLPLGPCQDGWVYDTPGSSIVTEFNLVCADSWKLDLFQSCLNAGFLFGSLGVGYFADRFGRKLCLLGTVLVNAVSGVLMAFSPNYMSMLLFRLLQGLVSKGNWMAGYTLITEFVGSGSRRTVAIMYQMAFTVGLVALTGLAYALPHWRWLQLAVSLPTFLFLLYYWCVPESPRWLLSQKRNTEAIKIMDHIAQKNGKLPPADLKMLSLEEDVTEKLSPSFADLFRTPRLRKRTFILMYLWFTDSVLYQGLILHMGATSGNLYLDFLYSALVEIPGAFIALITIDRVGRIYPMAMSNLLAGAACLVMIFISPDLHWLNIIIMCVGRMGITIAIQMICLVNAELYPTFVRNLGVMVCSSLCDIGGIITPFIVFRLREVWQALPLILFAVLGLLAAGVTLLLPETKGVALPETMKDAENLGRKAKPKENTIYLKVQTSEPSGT

[9] = Rat embryofetal development study; type: in vivo; details: female, rat, in vivo, po; plasma toxicokinetics on Gestational Day 17, 1000 mg/kg/day; read-out: AUC0-24 at rat EFD NOEL
[10] = tested on: rats; test: Rat embryofetal development study; type: in vivo
[11] = AUC in animals/(predicted) AUC in humans

SMILES: CN1C(=O)[C@@H](NC(=O)c2n[nH]c(Cc3ccccc3)n2)COc2ccc(C#CC(C)(C)O)cc21 [Compound I, (S)-5-benzyl-N-(7-(3-hydroxy-3-methylbut-1-yn-1-yl)-5-methyl-4-oxo-2,3,4,5-tetrahydrobenzo[b][1,4]oxazepin-3-yl)-1H-1,2,4-triazole-3-carboxamide]
- inhibition of substrates of OATP2B1 transporter [1]: may also inhibit
- induction of CYP3A5 [2]: may induce
- inhibition of drugs metabolized by CYP3A [3]: may inhibit
- inhibition of drugs metabolized by CYP2C8 [4]: may inhibit
- Margin of Safety, rat NOAEL vs human 50 mg [5, 11]: 67 X
- Margin of Safety, rat NOAEL vs human 125 mg [5, 11]: 27 X
- toxicology findings in rats ([5]; toxicology studies up to 6 months): minimal effects
- induction of CYP3A [6]: weak inducer
- inhibition of substrates of BCRP transporter [7]: may also inhibit
- inhibition of substrates of OCT1 transporter [8]: may also inhibit
- AUC(0-t) [9]: 1120 µg·h/mL
- Margin of Safety, rat EFD NOEL vs human 50 mg [10, 11]: 70 X
- Margin of Safety, rat EFD NOEL vs human 125 mg [10, 11]: 28 X
- developmental and reproductive toxicology outcome, rats ([10]; concerns for women of childbearing potential): did not reveal any concerns
- Rat EFD NOEL dose ([10]; rat embryofetal development study): 1000 mg/kg/day
